From patent US9296778B2, “3′,5′-cyclic phosphate prodrugs for HCV infection” (Idenix Pharmaceuticals, Inc., priority 2012, dated 2016)
Where two headings read alike, the source gives them in different places.

Tests used:
[1] = Stability in simulated intestinal fluid; format: in vitro ADME; conditions: 100 μM, 2 hours at 37° C., percent of the peak area at time zero
Outline: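 Compounds at 100 μM final, in duplicate, kept 2 h at 37° C in USP gastric fluid (pepsin) or intestinal fluid (pancreatin). Quenched with cold acetonitrile, supernatant analysed by C-18 HPLC, UV 252 nm. Remaining compound expressed as percent of time-zero peak area.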

fresh human hepatocytes = assay: Release of active metabolite in fresh human hepatocytes; format: in vitro ADME; conditions: 10 μM compound; for FHH TP Cmax: fresh human hepatocytes; for FHH TP AUC: fresh human hepatocytes, 6, 24 and 48 hours
Outline: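 Overnight-acclimatized hepatocytes (0.8 million cells/well human, 0.5 million mouse) incubated at 37 °C with 10 μM test compound (0.1% DMSO). Sampled at 6, 24, 48 h (human) or 1, 4, 8, 12, 24 h (mouse); cells washed, extracted in cold 70% methanol, intracellular content quantified by LC-MS/MS with internal standard.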

[2] = Stability in liver subcellular fractions (microsomes); format: in vitro ADME, human; conditions: 10 μM, 1.0 mg/mL microsomal protein, NADPH, 60 min, percent unchanged test compound
Description: Stability of compounds were determined in subcellular fractions (microsomes) of human liver in duplicate for each matrix. Pooled liver microsomal proteins (1.0 mg/mL), suspended in incubation buffer (100 mM potassium phosphate, pH 7.4, 5 mM MgCl2, and 0.1 mM EDTA), were preincubated for 5 min at 37° C. with 10 μM of a test compound from a 10 mM stock solution in DMSO (final DMSO concentration was 0.1%); the reaction was initiated by the addition of NADPH (3 mM final concentration). At specific times (0 and 60 min), 0.1 mL samples were taken and the reaction terminated by the addition of 4 volumes of stop solution (acetonitrile with 500 ng/mL carbutamide as an internal standard). The samples were vortexed for 30 sec and then centrifuged at 16,000 g for 10 min. 100 μL of supernatants were transferred to 96 deep-well plates preloaded with 100 μL distilled water and analyzed after mixing by LC-MS/MS. The MS peak area ratio of the test compounds versus the internal standard was calculated and percent unchanged test compound over 60 minutes was calculated using this ratio.

Zluc cells [3] = assay: cytotoxicity evaluation (CellTiter-Blue Cell Viability Assay); conditions: read-out: HCV Replicon CC50; Zluc cells, CellTiter-Blue
[4] = Stability in fresh human whole blood; format: in vitro ADME; conditions: 0.5 μM, percent unchanged test compound
Outline: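 Test compound at 0.5 μM was incubated at 37 °C in fresh human K2EDTA whole blood, stored at 2–8 °C and used within 7 days, in triplicate. Samples taken at 0, 0.5, 1 and 2 h were quenched in cold acetonitrile containing internal standard and analysed by LC-MS/MS. Percent unchanged compound was derived from peak-area ratios.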

Stability in mouse blood = format: in vitro ADME; conditions: on ice, percent unchanged test compound
Outline: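 Test compound at 0.5 μM final in whole blood, held on ice; sampled at 0, 0.5 and 1 hr in triplicate. Samples quenched with acetonitrile containing internal standard and analysed by LC-MS/MS; percent unchanged compound from peak area ratio to internal standard.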

[5] = Stability in simulated gastric fluid; format: in vitro ADME; conditions: 100 μM, 2 hours at 37° C., percent of the peak area at time zero
Description: Simulated gastric and intestinal fluids containing pepsin and pancreatin respectively were prepared according to the U.S. Pharmacopoeia USP291 procedure (www.pharmacopeia.cn/v29240/usp29nf24s0_ris1s126.html). Compounds (final concentration 100 μM) were incubated in duplicate in the appropriate fluid for 2 hours at 37° C. The samples were quenched with 200 μl cold acetonitrile, vortexed for 30 seconds and then centrifuged at 16,100 g for 10 min. The supernatants were analyzed by HPLC on a C-18 column with UV detection at 252 nm. The time 0 samples were prepared by adding SGF or SIF fluid to the quenching solvent followed by the test compound. Stability of the compounds was determined by peak area of the test compounds after incubation and calculated as percent of the peak area observed at time zero.

HCV genotype 1b replicon = assay: HCV Replicon Assay; format: cell-based; conditions: Zluc cells (Huh-7-derived, HCV genotype 1b replicon, luciferase reporter), 72 hours; read-out: HCV Replicon EC50
Outline: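 Zluc Huh-7 cells with HCV genotype 1b replicon and luciferase reporter treated with 5-fold dilutions (100 μM to 0.0000512 μM final) in duplicate, or at 1 and 10 μM. Luminescence read with ONE-glo; EC50 from dose-response fits, or % inhibition at the fixed concentrations.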

Zluc cells [6] = test system: Zluc cells
[7] = biological target: T1, carboxylesterase 1 (CES1) (Homo sapiens, UniProt P23141); assay: CES1 hydrolysis assay; format: in vitro ADME; conditions: for CES1 hydrolysis: 100 μM compound, 37° C.
T1 construct: purchased R & D Systems (Minneapolis, Minn.)
T1 sequence (P23141 18-567): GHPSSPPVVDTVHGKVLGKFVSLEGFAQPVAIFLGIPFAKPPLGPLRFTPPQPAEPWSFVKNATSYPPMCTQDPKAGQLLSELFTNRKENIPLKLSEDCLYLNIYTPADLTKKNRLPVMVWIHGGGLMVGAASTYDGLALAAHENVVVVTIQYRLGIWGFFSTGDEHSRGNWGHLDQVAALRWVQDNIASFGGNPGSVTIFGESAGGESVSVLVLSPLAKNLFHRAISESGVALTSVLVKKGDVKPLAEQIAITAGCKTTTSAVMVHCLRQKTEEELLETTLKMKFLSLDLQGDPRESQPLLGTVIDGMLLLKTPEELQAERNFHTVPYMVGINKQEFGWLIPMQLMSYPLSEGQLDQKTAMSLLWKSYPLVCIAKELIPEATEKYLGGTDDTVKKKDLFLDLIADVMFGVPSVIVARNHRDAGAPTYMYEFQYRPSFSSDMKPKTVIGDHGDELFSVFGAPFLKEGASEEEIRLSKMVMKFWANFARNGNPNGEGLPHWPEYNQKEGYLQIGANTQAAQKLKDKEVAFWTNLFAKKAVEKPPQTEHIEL
Description: CES1 assay was performed at 37° C. in the reaction mixture containing 50 mM Tris/HCl buffer pH 7.5 and 100 μM of the compound. Reaction was started by addition of the CES1 to the final concentration 0.01 μg/mL. 100 μL aliquots were taken after 0.5 min, 3 hrs and 21 hrs of the incubation and the reaction was stopped by mixing with 100 μl of the ice-cold methanol prior to HPLC analysis.
(§1) Samples were analyzed by HPLC using 5μ C-18, 4.6×250 mm Phenomenex® Columbus column (Phenomenex USA, CA). The mobile phase consisted of buffer A (25 mM potassium phosphate with 5 mM tetrabutylammonium dihydrogen phosphate pH 6.3) and buffer B (100% methanol).

cathepsin A (CatA) = biological target: T2, cathepsin A (CatA) (Homo sapiens, UniProt P10619); assay: CatA hydrolysis assay; format: in vitro ADME
T2 construct: purchased R & D Systems (Minneapolis, Minn.)
T2 sequence (P10619 29-326 limits assumed): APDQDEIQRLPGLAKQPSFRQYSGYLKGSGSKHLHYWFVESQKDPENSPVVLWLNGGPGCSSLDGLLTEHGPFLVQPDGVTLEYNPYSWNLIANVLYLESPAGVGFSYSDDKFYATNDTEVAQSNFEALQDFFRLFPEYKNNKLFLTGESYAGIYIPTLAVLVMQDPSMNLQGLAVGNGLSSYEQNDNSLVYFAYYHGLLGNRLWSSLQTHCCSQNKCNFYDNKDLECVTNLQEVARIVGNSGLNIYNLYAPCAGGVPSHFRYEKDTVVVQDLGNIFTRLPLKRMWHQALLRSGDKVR
T2 sequence (P10619 327-480 limits assumed): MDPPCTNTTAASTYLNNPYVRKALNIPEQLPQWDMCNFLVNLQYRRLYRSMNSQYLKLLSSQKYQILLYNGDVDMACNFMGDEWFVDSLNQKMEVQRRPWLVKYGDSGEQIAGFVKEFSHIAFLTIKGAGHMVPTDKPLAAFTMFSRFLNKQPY
Description: CatA, cathepsin L (CatL) and CES1 were purchased from R & D Systems (Minneapolis, Minn.). Prior to the enzymatic hydrolysis reactions, CatA was activated according to the manufacturer's instruction. Briefly, CatA (0.05 μg/μL) was incubated with CatL (0.005 μg/μL) for 30 min at 37° C. in 25 mM MES pH 6.0 containing 5 mM DTT. The reaction was stopped by addition of the CatL specific inhibitor E64 (10 μM).
The CatA assay was performed at 37° C. The reaction mixture contained 25 mM MES buffer pH 6.0, 100 mM NaCl, 4 mM DTT and 100 μM of the compound. The reaction was started by addition of the activated CatA enzyme to a final concentration of 0.005 μg/μL. One hundred-μL aliquots were taken after 0.5 min, 3 hrs and 18 hrs of incubation. Reactions were stopped by mixing the sample with an equal volume of ice-cold methanol, and were loaded on a HPLC for analysis.
as §1

genotype 1b HCV replicon = assay: genotype 1b HCV replicon-bearing Huh-7 cells (Table 5); format: cell-based; conditions: Hepatitis C virus
Description: In vivo Z4 and Z2 appear to be effectively liver-targeted with a high liver:plasma ratio of drug metabolites. Both prodrugs are readily converted to the triphosphate (TP) metabolite in the liver of mice and monkey producing more TP than GS-7977. […] The in vitro antiviral inactivity of Z4 and Z2 is thought to reflect an inability of Huh-7 replicon cells to metabolize the prodrug moiety.

Huh-7 cells = assay: Release of active metabolite in Huh-7 cells; format: in vitro ADME, human; conditions: Huh-7 cells, AUC0-72
Description: Huh-7 cells were plated in 1 mL culture medium (DMEM, containing glucose, L-glutamine and sodium pyruvate, 10% FBS, 100 IU/mL penicillin, 100 μg/mL streptomycin, 2 mM GlutaMAX, 1% MEM non-essential amino acids) at the concentration 0.8, 0.4 and 0.2 million cells per well on 6 well plates for 24, 48 and 72 hr treatment, respectively. Plated cells were incubated overnight at 37° C. in an incubator.
The following morning compounds was diluted to 20 μM from a stock solution in DMSO in fresh culture medium pre-warmed to 37° C. and 1 mL of the solution/well was added to cells. A final medium volume per well was 2.0 mL, Compound concentration in well was 10 μM and final DMSO concentration was 0.1%.
After 24, 48 or 72 hr, the medium was carefully removed and cell monolayers were washed twice with 2 mL ice-cold PBS per well. Following the last wash, all PBS was carefully removed and 1.0 mL of extraction solution (ice-cold 70% methanol) added. The plate was tightly covered with Parafilm, plastic plate cover and Parafilm again and an intracellular content was extracted at −20° C. for 24 hr.
After 24 hr extracts were transferred into polypropylene microfuge tubes and dried on a refrigerated centrivap concentrator. Dry residues were reconstituted in 250 μL of HPLC-grade water and centrifuged at 16,000×g for 10 min. Aliquots (100 μL each) of the supernatants were transferred into a 96 well plate and internal standard (4 ng/mL final concentration) was added as the internal standard (IS) for LC-MS/MS analysis.

CCOC(=O)COP1(=O)OC[C@H]2O[C@@H](n3cnc4c(OCC)nc(N)nc43)[C@](C)(F)[C@@H]2O1 (single isomer, unassigned; diastereomer 1) [Compound 7 Diastereomer 1]
Stability SIF [1]: 50% | FHH TP Cmax (fresh human hepatocytes): 31 pmol/mill cells | FHH TP AUC (fresh human hepatocytes): 377 pmol · hr/mill cells | Stability HLM (1 hr) [2]: 0.5% | CC50 (Zluc cells [3]): > 50 µM | Stability WB_Human (37° C.; 2 hr) [4]: 25% | Stability WB_Mouse (ice; 1 hr) (Stability in mouse blood): 1% | Stability SGF [5]: 87% | EC50 (HCV genotype 1b replicon): < 0.25 µM

CCOc1nc(N)nc2c1ncn2[C@@H]1O[C@@H]2COP(=O)(OCCSSC(C)(C)C)O[C@H]2[C@@]1(C)O (single isomer, unassigned; diastereomer 1) [Compound 23 Diastereomer 1]
CC50 (Zluc cells [6]): < 50 µM | EC50 (HCV genotype 1b replicon): < 0.25 µM

CC(C)OC(=O)[C@H](C)N[P@@](=O)(OC[C@H]1O[C@@H](n2ccc(=O)[nH]c2=O)[C@](C)(F)[C@@H]1O)Oc1ccccc1 [PSI-7076]
hydrolysis by CES1 (in words) [7]: hydrolyzed | hydrolysis by CatA (in words) (cathepsin A (CatA)): hydrolyzed

CCOc1nc(N)nc2c1ncn2C1OC2COP(=O)(Oc3ccc(CC(NC(=O)OC)C(=O)OC(C)C)cc3)OC2C1(C)F (single isomer, unassigned; diastereomer 1) [Compound 13 Diastereomer 1]
Stability SIF [1]: 72% | FHH TP Cmax (fresh human hepatocytes): 44 pmol/mill cells | FHH TP AUC (fresh human hepatocytes): 1632 pmol · hr/mill cells | Stability HLM (1 hr) [2]: 0.4% | CC50 (Zluc cells [3]): > 50 µM | Stability WB_Human (37° C.; 2 hr) [4]: 29% | Stability WB_Mouse (ice; 1 hr) (Stability in mouse blood): 1% | EC50 (HCV genotype 1b replicon): < 0.25 µM

CCOc1nc(N)nc2c1ncn2[C@@H]1O[C@@H]2COP(=O)(OCCSC(=O)C(C)(C)CO)O[C@H]2[C@@]1(C)OC(C)=O (single isomer, unassigned; diastereomer 2) [Compound 16 Diastereomer 2]
CC50 (Zluc cells [6]): < 50 µM | EC50 (HCV genotype 1b replicon): < 0.25 µM

CCOc1nc(N)nc2c1ncn2C1OC2COP(=O)(OCC(NC(=O)OC)C(C)(C)C)OC2C1(C)F (single isomer, unassigned; diastereomer 1) [Compound 10 Diastereomer 1]
CC50 (Zluc cells [6]): > 50 µM | EC50 (HCV genotype 1b replicon): 0.25 to 1 µM

CC(C)OC(=O)[C@H](C)N[P@](=O)(OC[C@H]1O[C@@H](n2ccc(=O)[nH]c2=O)[C@](C)(F)[C@@H]1O)Oc1ccccc1 [GS-7977]
EC50 (genotype 1b HCV replicon): 0.25 µM | hydrolysis by CES1 (in words) [7]: hydrolyzed | CES1 hydrolysis ([7]; 3 h): 12%/3 h; | CES1 hydrolysis ([7]; 21 h): 15%/21 h | Huh-7 AUC0-72 (Huh-7 cells): 63555 pmol * hr/10^6cells | hydrolysis by CatA (in words) (cathepsin A (CatA)): hydrolyzed | CatA hydrolysis (cathepsin A (CatA); 100 μM compound, 37° C., 18 h): 100% @ 18 h | CatA cleavage efficiency relative to RP diastereoisomer (cathepsin A (CatA); GS-7977 (SP) versus its RP diastereoisomer): 10 times
